# Tests used:
# Format in all cases: cell-based, mouse
# [1] = system: mESC; assay: Nuclear γH2AX / 53BP1 foci (DSB); details: mESC 24 h, equitoxic concentrations
# Description: (§1) DNA double-strand breaks were monitored by immunocytochemical detection of nuclear γH2AX and 53BP1 foci. Cells were fixed with 3.7% formaldehyde/PBS (15 min, RT) and permeabilized (0.3% TritonX/PBS; 15 min, RT). […] Cell suspension was mixed with 0.5% low melting point agarose and applied onto glass slides coated with 1.5% agarose. After lysis in alkaline buffer (pH 10, 1 h, 4 °C, protected from light) and DNA denaturation in precooled electrophoresis buffer (pH > 13, 25 min, 4 °C, protected from light) electrophoresis was performed (300 mA, 25 V, 4 °C, 25 min).
# [2] = system: EC d4; assay: Nuclear γH2AX / 53BP1 foci (DSB); details: EC d4 48 h, equitoxic concentrations
# Description: as §1
# [3] = system: EC d6; assay: Mitochondrial membrane potential (TMRM-MitoTracker Green); details: EC d6 treated 24 h
# Description: Mitochondrial membrane potential (ΔΨm) was analyzed by live-cell imaging using TMRM-MitoTracker Green co-staining. Cells were seeded and differentiated on Poly-D-Lysine-fibronectine-coated live-imaging dishes. For staining, cells were incubated with 200nM MitoTracker Green (Invitrogen) and 50 nM TMRM (Invitrogen) in DMEM (30 min, 37 °C, 5% CO2). After washing with PBS, live-cell microscopy was performed using a spinning disc confocal microscope (PerkinElmer) equipped with a 60x oil-immersion objective (N.A = 1.49) and a Hamamatsu C9100 camera (1000 × 1000 pixel) (excitation (MitoTracker Green): 488 nm, excitation (TMRM): 561 nm). The cells were kept at 37 °C in OptiMEM supplemented with 10 mM HEPES during imaging. The images were obtained at emission wavelength of 527 nm (W55) and 615 nm (W70) for 488 nm and 561 nm excitation, respectively.
# [4] = system: EC d4 (endothelial progenitor cells); assay: RT-qPCR mRNA expression; details: for Ccl2 mRNA / Icam-1 mRNA / Vcam-1 mRNA / eNos mRNA / iNos mRNA: Fig 8D; for Cdkn1a mRNA / Cdkn2a mRNA / Glb1 mRNA / Il6 mRNA / Il8 mRNA / Tp53 mRNA: Fig 7B
# Description: Total RNA was purified using the RNeasy Mini Kit (Qiagen, Hilden, Germany). Reverse transcriptase (RT) reaction was performed with the HighCapacity cDNA Reverse Transcription Kit (Applied Biosystems, Darmstadt, Germany) using 900–2000 ng of RNA. Quantitative RT-qPCR analysis was performed using following conditions: (1) 95 °C–10 min; (2) 45 amplification cycles with 95 °C–15 s, 55 °C–15 s, and 72 °C–17 s; (3) 95 °C–1 min, 55 °C–1 min, 65 °C–5 s. If not stated otherwise, analyses were performed in technical triplicates using pooled samples from two independent experiments (each performed with biological duplicates) by use of a CFX96 cycler (BioRad) and the SensiMix SYBR Kit (Bioline, London, UK). The primers used for mRNA expression analyses are listed in Supplementary Table 1. To ensure the specificity of the amplification product, melting curves were recorded at the end of the run. mRNA expression levels were normalized to β-Actin and Gapdh. Relative mRNA expression in mESC or corresponding untreated controls was set to 1.0. Only changes in gene expression of ≤ 0.5- and ≥ 2-fold were considered as biologically relevant.
# To monitor prototypical functions of endothelial cells, the uptake of fluorescent 1,1-dioctadecyl-3,3,3,3-tetra-methylindocarbocyanine-labeled acetylated LDL (Dil-acLDL) was examined. Briefly, cells were incubated with Dil-acLDL (10 µg/ml, 4 h, 37 °C). After fixation (3.7% cold formaldehyde/PBS (15 min, RT) nuclei were counterstained with DAPI. The uptake of DiI-acLDL was analyzed by fluorescence microscopy (Olympus BX43, 20x objective). Additionally, the response of differentiated EC to inflammatory cytokines was measured. After treatment with a pro-inflammatory cytokine mixture (TNFα/IL-1β, 10 ng/mL) for 1 h, mRNA expression of activated EC markers E-selectin, Icam-1, Vcam-1, Ccl2, eNos, iNos was analyzed (RT-qPCR).
# [5] = system: EC d4; assay: VE-cadherin cell-cell junction immunostaining; details: EC d4 treated 48 h
# [6] = system: mESC; assay: AlamarBlue cell viability; details: Mus musculus
# Description: (§2) Drug-induced cytotoxicity was monitored by analyzing cell viability using the AlamarBlue assay, which measures the reduction of the non-fluorescent dye resazurin (Sigma [Steinheim, Germany]) to fluorescent resorufin by living (i.e. metabolically active) cells. Fluorescence was measured in quadruplicates (excitation: 535 nm, emission: 590 nm (Tecan infinite 200, Tecan, Männedorf, Switzerland)). Relative cell viability of the untreated control was set to 100%.
# [7] = system: EC d4 (endothelial progenitor cells); assay: AlamarBlue cell viability; details: 48 h treatment
# Description: as §2
# [8] = EC d4 + 0.5 µM 48 h, analysed in EC d6
# [9] = EC d4 + 0.5 µM 48 h, then + I/T (IL-1β/TNFα 10 ng/ml, 1 h)
# [10] = EC d4 + 1 µM 48 h, analysed day 6, Fig 1C
# [11] = EC d4 + 1 µM 48 h, analysed in EC d6
# [12] = EC d4 + 1 µM 48 h, then + I/T (IL-1β/TNFα 10 ng/ml, 1 h)
smiles,measurement,setting,value
"Nc1ccccc1NC(=O)c1ccc(CNC(=O)OCc2cccnc2)cc1 [EST, entinostat]",nuclear γH2AX foci,[1],significant increase
same,DSB numbers (γH2AX / 53BP1 foci),[2],clear increase
same,mitochondrial membrane potential,[3],remained largely unaffected
same,Ccl2 mRNA,[4]; [8],4.20 Fold of untreated control
same,Icam-1 mRNA,[4]; [8],6.04 Fold of untreated control
same,Vcam-1 mRNA,[4]; [8],0.80 Fold of untreated control
same,eNos mRNA,[4]; [8],156.02 Fold of untreated control
same,iNos mRNA,[4]; [8],4.21 Fold of untreated control
same,Ccl2 mRNA,[4]; [9],454.50 Fold of untreated control
same,Icam-1 mRNA,[4]; [9],26.69 Fold of untreated control
same,Vcam-1 mRNA,[4]; [9],1.68 Fold of untreated control
same,eNos mRNA,[4]; [9],165.80 Fold of untreated control
same,iNos mRNA,[4]; [9],4.06 Fold of untreated control
same,Cdkn1a mRNA,[4]; EC d4 + 0.5 µM 48 h,1.59 Fold of untreated control
same,Cdkn2a mRNA,[4]; EC d4 + 0.5 µM 48 h,1.29 Fold of untreated control
same,Glb1 mRNA,[4]; EC d4 + 0.5 µM 48 h,1.41 Fold of untreated control
same,Il6 mRNA,[4]; EC d4 + 0.5 µM 48 h,0.99 Fold of untreated control
same,Il8 mRNA,[4]; EC d4 + 0.5 µM 48 h,0.80 Fold of untreated control
same,Tp53 mRNA,[4]; EC d4 + 0.5 µM 48 h,1.018 Fold of untreated control
same,Flk1 mRNA,[4]; [10],19.60 Fold of mESC
same,Nanog mRNA,[4]; [10],0.05 Fold of mESC
same,Oct4 mRNA,[4]; [10],0.05 Fold of mESC
same,Pecam1 mRNA,[4]; [10],1.30 Fold of mESC
same,VE-cad mRNA,[4]; [10],858.76 Fold of mESC
same,Ccl2 mRNA,[4]; [11],0.90 Fold of untreated control
same,Icam-1 mRNA,[4]; [11],5.21 Fold of untreated control
same,Vcam-1 mRNA,[4]; [11],0.49 Fold of untreated control
same,eNos mRNA,[4]; [11],58.94 Fold of untreated control
same,Ccl2 mRNA,[4]; [12],132.23 Fold of untreated control
same,Icam-1 mRNA,[4]; [12],19.80 Fold of untreated control
same,Vcam-1 mRNA,[4]; [12],1.55 Fold of untreated control
same,eNos mRNA,[4]; [12],53.06 Fold of untreated control
same,iNos mRNA,[4]; [12],1.30 Fold of untreated control
same,Brca1 mRNA,"[4]; EC d4 + 1 µM 48 h, Fig 5C",0.32 Fold of mESC
same,Chk1 mRNA,"[4]; EC d4 + 1 µM 48 h, Fig 5C",0.51 Fold of mESC
same,Rad51 mRNA,"[4]; EC d4 + 1 µM 48 h, Fig 5C",0.26 Fold of mESC
same,Pgc1a mRNA,"[4]; EC d4 + 1 µM 48 h, Fig 6D",0.21 Fold of untreated control
same,Cdkn1a mRNA,[4]; EC d4 + 1 µM 48 h,1.62 Fold of untreated control
same,Cdkn2a mRNA,[4]; EC d4 + 1 µM 48 h,1.49 Fold of untreated control
same,Glb1 mRNA,[4]; EC d4 + 1 µM 48 h,1.61 Fold of untreated control
same,Il6 mRNA,[4]; EC d4 + 1 µM 48 h,1.09 Fold of untreated control
same,Il8 mRNA,[4]; EC d4 + 1 µM 48 h,0.57 Fold of untreated control
same,Tp53 mRNA,[4]; EC d4 + 1 µM 48 h,0.99 Fold of untreated control
same,Cldn5 mRNA,"[4]; EC d4 + 1 µM 48 h, Fig 8C",0.55 Fold of EC d4 or d6
same,Ocln mRNA,"[4]; EC d4 + 1 µM 48 h, Fig 8C",1.06 Fold of EC d4 or d6
same,Tjp1 mRNA,"[4]; EC d4 + 1 µM 48 h, Fig 8C",1.56 Fold of EC d4 or d6
same,Ldlr mRNA,"[4]; EC d4 + 1 µM 48 h, Fig 8F",0.66 Fold of untreated control
same,VE-cadherin cell-cell junctions in EC d6 differentiated from treated EC d4,[5],did not trigger defects
same,IC50,[6]; 24 h treatment,18.8 µM
same,IC50,[6]; 72 h treatment,2.6 µM
same,susceptibility (cell viability) of EC d4 as compared to both mESC and EC d6,[7],significant higher
